Values of other authors in patent publication US20220184020A1, “Polyphenols as Modulators of Platelet Function” (Northeastern University, priority 2019, published 2022).

How the values were obtained:
[1] = cited from earlier work; for Max: maximum concentration detected in blood; for Max / Min: HMDB; for Min: minimum concentration detected in blood; for Concentration in Blood: retrieved from HMDB, Table 2
[2] = in vitro and in vivo models; cited from earlier work
[3] = in vivo models, recent studies; cited from earlier work
MCF7 cell line = conditions: MCF7, 1 μM, 6 hours; cited from earlier work

Structure (SMILES)	Max [1]	Min [1]	other results
O=C(O)c1cccc(O)c1O [2,3-dihydroxybenzoic acid]	0.129 µM	0.129 µM	
O=C(O)c1ccccc1O [2-hydroxybenzoic acid]	0.02 µM	0.02 µM	
Oc1cc(O)c2c(c1)O[C@H](c1ccc(O)c(O)c1)[C@H](O)C2 [(-)-epicatechin]	0.625 µM	0.625 µM	Concentration in Blood [1]: 0.625 µM
O=C(O[C@@H]1Cc2c(O)cc(O)cc2O[C@@H]1c1cc(O)c(O)c(O)c1)c1cc(O)c(O)c(O)c1 [(-)-epigallocatechin 3-O-gallate]			glucose-lowering effects [2]: glucose-lowering effects
O=c1cc(-c2ccc(O)cc2)oc2cc(O)cc(O)c12 [apigenin]	0.127 µM	0.0106 µM	
O=c1oc2cc(O)ccc2c2oc3cc(O)ccc3c12 [coumestrol]	0.0123 µM	0.0123 µM	
O=c1oc2c(O)c(O)cc3c(=O)oc4c(O)c(O)cc1c4c23 [ellagic acid]	0.067 µM	0.067 µM	
O=C(O)c1cc(O)c(O)c(O)c1 [gallic acid]			effects on vascular health [3]: protective effects on vascular health
O=c1c(-c2ccc(O)cc2)coc2cc(O)cc(O)c12 [genistein]	0.525 µM	0.00022 µM	number of Skin Diseases (SD) genes with perturbation score>2 (MCF7 cell line): 10; number of highly perturbed Cerebrovascular Disorders (CD) genes (MCF7 cell line): one; Concentration in Blood [1]: [0.006-0.525 μM]
COc1ccccc1O [guaiacol]	8.5 µM	8.5 µM	
COc1cc(-c2oc3cc(O)cc(O)c3c(=O)c2O)ccc1O [isorhamnetin]	0.157 µM	0.0388 µM	
O=c1c(O)c(-c2cc(O)c(O)c(O)c2)oc2cc(O)cc(O)c12 [myricetin]	45 µM	45 µM	
O=C1C[C@@H](c2ccc(O)cc2)Oc2cc(O)cc(O)c21 [naringenin]	0.02 µM	0.00815 µM	
Oc1ccccc1 [phenol]	6.38 µM	0.86 µM	
O=C(O)Cc1ccccc1 [phenylacetic acid]	80.36 µM	10.28 µM	
O=c1c(O)c(-c2ccc(O)c(O)c2)oc2cc(O)cc(O)c12 [quercetin]			Concentration in Blood [1]: [0.022-0.080 μM]
